What all share (format): functional
In one assay the test system is Mus musculus. Briefly: Analgesic activity in Kunming mouse assessed as increase in pain threshold at 10 mg/kg, po (reference value: 0.13 +/- 5.20 sec).
In assay [1] the target is Mu-type opioid receptor (Homo sapiens) (UniProt P35372). Briefly: Agonist activity at MOR (unknown origin) assessed as cAMP accumulation at 50 nM relative to control. On the technique in general: Changes in cAMP serve as a functional read-out for many G protein-coupled receptors.
For assay [2] the target is unchanged. The experiment in a line: Agonist activity at MOR (unknown origin) assessed as cAMP accumulation at 0.5 nM relative to control.
For assay [3] the target is unchanged. Briefly: Agonist activity at MOR (unknown origin) assessed as beta-arrestin2 recruitment at 0.1 uM incubated for 90 to 180 mins by chemiluminescence based microplate reader assay relative to control. As to conditions: time 90-180 min. On the technique in general: Recruitment of arrestin is a read-out of receptor activation apart from second messengers.
The target is the same in assay [4]. Briefly: Agonist activity at MOR (unknown origin) assessed as beta-arrestin2 recruitment at 1 uM incubated for 90 to 180 mins by chemiluminescence based microplate reader assay relative to control. As to conditions: time 90-180 min.
Assay [5] shares this target. The experiment in a line: Agonist activity at MOR (unknown origin) assessed as beta-arrestin2 recruitment at 10 uM incubated for 90 to 180 mins by chemiluminescence based microplate reader assay relative to control. As to conditions: time 90-180 min.
For assay [6] the target is unchanged. Briefly: Agonist activity at MOR (unknown origin) assessed as beta-arrestin2 recruitment at 50 uM incubated for 90 to 180 mins by chemiluminescence based microplate reader assay. As to conditions: time 90-180 min.

Activity calls are given as the source filed them.

Sequence of Mu-type opioid receptor (Homo sapiens) (P35372 whole entry): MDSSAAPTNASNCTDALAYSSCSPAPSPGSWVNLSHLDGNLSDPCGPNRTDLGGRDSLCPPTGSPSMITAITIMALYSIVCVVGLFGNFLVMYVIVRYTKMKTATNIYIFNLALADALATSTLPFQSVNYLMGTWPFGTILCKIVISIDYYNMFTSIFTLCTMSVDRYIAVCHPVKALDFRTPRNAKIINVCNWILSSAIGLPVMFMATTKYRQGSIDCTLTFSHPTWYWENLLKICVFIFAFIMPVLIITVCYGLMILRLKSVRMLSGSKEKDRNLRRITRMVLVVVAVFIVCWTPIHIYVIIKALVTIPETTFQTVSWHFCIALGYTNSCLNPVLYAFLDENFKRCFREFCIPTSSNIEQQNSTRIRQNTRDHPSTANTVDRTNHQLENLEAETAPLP

For `CC(Cc1cccnc1)N/C(=N\C#N)NC[C@H](Cc1ccccc1)N(C)C` (stereo partly specified), the Time in the assay with Mus musculus was found to be 15.75 s. Moreover, the Activity in assay [1] is 9.5%; in assay [2] it was 9.3%; in assay [3], -1.1%; in assay [4], -0.9%; in assay [5] it was -0.6%. Also, the result in assay [6] was inactive.

`CC(Cc1c[nH]c2ccccc12)N/C(=N\C#N)NC[C@H](Cc1ccccc1)N(C)C` (stereo partly specified): the Time in the assay on Mus musculus came to 11.63 s. Besides, the Activity in assay [1] was 17.7%; in assay [2], 11.1%; in assay [3], -0.9%; in assay [4] it was -0.9%; in assay [5], -0.7%. Besides, the outcome in assay [6] was inactive.

Regarding `CN(C)[C@H](CN/C(=N/C#N)NCCc1ccccc1)Cc1ccccc1`, the Time in the assay with Mus musculus stood at 19.93 s. Besides, the Activity in assay [1] is 28%; in assay [2] it was 25.9%; in assay [3], -0.9%; in assay [4], -0.2%; in assay [5], 2%. Also, the outcome in assay [6] was inactive.

In the case of `CN(C)[C@H](CN/C(=N/C#N)NCCc1ccc(O)cc1)Cc1ccccc1`, the Time in the assay with Mus musculus turned out to be 6.82 s. For the same molecule, the Activity was 19.3% in assay [1]; 13.2% in assay [2]; -0.9% in assay [3]; -0.7% in assay [4]; -0.9% in assay [5]. Also, the result in assay [6] was inactive.

`COc1ccccc1N/C(=N\C#N)NC[C@H](Cc1ccc(O)cc1)N(C)C`: the Time in the assay on Mus musculus turned out to be 7.76 s. The Activity is 32.9% in assay [1]; 25.5% in assay [2]; -1.2% in assay [3]; -1% in assay [4]; -1% in assay [5]. Besides, the outcome in assay [6] was inactive.

Take `CN(C)[C@H](CN/C(=N/C#N)NCCc1ccccc1)Cc1ccc(O)cc1`: the Time in the assay on Mus musculus is on record as 6.89 s. Also, the Activity in assay [1] is 4.1%; in assay [2] it was 8.6%; in assay [3], -0.9%; in assay [4], -0.7%; in assay [5], -0.7%. Further, in assay [6], the result was inactive.

In the case of `COc1ccccc1N/C(=N\C#N)NC[C@H](Cc1ccccc1)N(C)C`, the Time with Mus musculus stood at 7.34 s. The Activity in assay [1] was 36.9%; in assay [2] it was 9.5%; in assay [3], -0.8%; in assay [4] it was 2%; in assay [5], 15.2%. Also, the outcome in assay [6] was inactive.

Take `CC(Cc1ccc[nH]1)N/C(=N\C#N)NC[C@H](Cc1ccccc1)N(C)C` (stereo partly specified): the Time in the assay with Mus musculus is on record as 17.58 s. In addition, the Activity is 24.3% in assay [1]; 5.8% in assay [2]; -1% in assay [3]; -0.4% in assay [4]; 7.9% in assay [5]. The result in assay [6] was inactive.

Take `COc1ccc2cc(CC(C)N/C(=N\C#N)NC[C@H](Cc3ccccc3)N(C)C)ccc2c1` (stereo partly specified): the Time in the assay with Mus musculus was found to be 10.44 s. Besides, the Activity in assay [1] was 23.6%; in assay [2], 15.2%; in assay [3] it was -1%; in assay [4], -1%; in assay [5] it was -1%. In assay [6], the result was inactive.

On to `CN1CC[C@]23c4c5ccc(O)c4O[C@H]2[C@@H](O)C=C[C@H]3[C@H]1C5` [MORPHINE], for which, in the assay with Mus musculus, the Time is given as 22.79 s.

Turning to `CC(Cc1ccsc1)N/C(=N\C#N)NC[C@H](Cc1ccccc1)N(C)C` (stereo partly specified), the Time in the assay on Mus musculus was found to be 22.76 s. Also, the Activity is 9.1% in assay [1]; -0.8% in assay [2]; -1% in assay [3]; -0.6% in assay [4]; 1.9% in assay [5]. For the same molecule, the result in assay [6] was inactive.

As for `CC(Cc1cccs1)N/C(=N\C#N)NC[C@H](Cc1ccccc1)N(C)C` (stereo partly specified), the Time with Mus musculus is listed as 21.8 s. Further, the Activity in assay [1] is 37.2%; in assay [2] it was 12.4%; in assay [3], -0.9%; in assay [4] it was -0.4%; in assay [5], 2%. Further, in assay [6], the result was inactive.

As for `CN(C)[C@H](CN/C(=N/C#N)Nc1ccccc1)Cc1ccccc1`, the Time with Mus musculus is reported as 20.94 s. Also, the Activity in assay [1] is 23.1%; in assay [2], 2.1%; in assay [3] it was -0.5%; in assay [4], 1.9%; in assay [5], 15.9%. The result in assay [6] was inactive.

Regarding `CC(Cc1c[nH]cn1)N/C(=N\C#N)NC[C@H](Cc1ccccc1)N(C)C` (stereo partly specified), in the assay with Mus musculus, the Time came out at 11.38 s. Further, the Activity in assay [1] is 0.8%; in assay [2], -14.4%; in assay [3] it was -0.5%; in assay [4], -0.1%; in assay [5], 2.2%. Also, the result in assay [6] was inactive.

Turning to `CC(Cc1ccco1)N/C(=N\C#N)NC[C@H](Cc1ccccc1)N(C)C` (stereo partly specified), in the assay with Mus musculus, the Time is given as 7.57 s. Also, the Activity in assay [1] was 15.6%; in assay [2], 9.5%; in assay [3], -1.3%; in assay [4] it was -1%; in assay [5], -0.8%. For the same molecule, in assay [6], the result was inactive.

Regarding `CC(Cc1cc[nH]n1)N/C(=N\C#N)NC[C@H](Cc1ccccc1)N(C)C` (stereo partly specified), in the assay on Mus musculus, the Time is 15.44 s. Also, the Activity in assay [1] is -15.2%; in assay [2] it was -2.5%; in assay [3], -0.4%; in assay [4], -0.7%; in assay [5] it was -0.6%. In assay [6], the outcome was inactive.

For `CN(C)[C@H](CN/C(=N/C#N)NCCc1cccc(F)c1)Cc1ccccc1`, the Time in the assay on Mus musculus was 8.86 s. The Activity in assay [1] is 14.4%; in assay [2], 7.4%; in assay [3] it was -0.7%; in assay [4], -0.3%; in assay [5], 4.8%. Moreover, the outcome in assay [6] was inactive.

Take `COc1ccc(CN/C(=N\C#N)NC[C@H](Cc2ccc(O)cc2)N(C)C)cc1`: the Time in the assay on Mus musculus came to 12.41 s. The Activity in assay [1] was 19.8%; in assay [2], 18.5%; in assay [3], -1%; in assay [4] it was -0.8%; in assay [5] it was -0.9%. The outcome in assay [6] was inactive.

On to `COc1ccc(CN/C(=N\C#N)NC[C@H](Cc2ccccc2)N(C)C)cc1`, for which the Time in the assay with Mus musculus is on record as 14.34 s. Further, the Activity in assay [1] is 14.4%; in assay [2], 2.9%; in assay [3], -0.9%; in assay [4] it was -0.6%; in assay [5], 0.9%. Moreover, the outcome in assay [6] was inactive.

For the molecule `COc1cccc(CCN/C(=N\C#N)NC[C@H](Cc2ccccc2)N(C)C)c1`, the Time in the assay on Mus musculus amounted to 12.47 s. In addition, the Activity in assay [1] is 10.3%; in assay [2] it was 3.3%; in assay [3], -1%; in assay [4] it was -0.6%; in assay [5] it was 23%. In assay [6], the result was inactive.

For the molecule `CC(Cc1ccncc1)N/C(=N\C#N)NC[C@H](Cc1ccccc1)N(C)C` (stereo partly specified), the Time in the assay with Mus musculus was 12.52 s. For the same molecule, the Activity was 8.6% in assay [1]; 2.9% in assay [2]; -1.1% in assay [3]; -0.9% in assay [4]; -0.5% in assay [5]. Further, the result in assay [6] was inactive.

The record behind these values is ChEMBL document CHEMBL6092201, “Discovery of cyanoguanidine derivatives as biased μ-opioid receptor agonists” (2024).
